Source: patent US6869959B1, “Heterocyclic carboxylic acid derivatives” (Institute of Medicinal Molecular Design Inc., priority 1999, dated 2005)
Values belong to the compound of their own block, whether it stands above or below them.

Columns and labels:
[1] = tested on: promyelocytic leukemia cell stain HL-60; assay: Effect on cell differentiation-inducing action of co-existing retinoid Am80 in HL-60 cell; assay type: cell-based; conditions: HL-60, NBT reduction
Excerpt: (§1) By using the above compounds, cell differentiation-inducing activity of each compound alone, and effect on cell differentiation-inducing action of a co-existing retinoid were examined. As a comparative and co-existing retinoid, Am80: 4-[(5,6,7,8-tetrahydro-5,5,8,8-tetramethyl-2-naphthalenyl)carbamoyl]benzoic acid (1×10^−10 M) was used. According to the method described in Japanese Patent Unexamined Publication (KOKAI) No.(Sho)61-76440/1986, promyelocytic leukemia cell stain HL-60 was used, and differentiation into granulocytic cells was determined by observing morphological change and measuring ability to reduce nitroblue tetrazolium (NBT). The ratios of differentiated cells shown in the following table were calculated from the ability of reducing NBT.

[2] = tested on: promyelocytic leukemia cell stain HL-60; assay: Cell differentiation-inducing activity test in HL-60 cell, each compound alone; assay type: cell-based; conditions: HL-60, NBT reduction
Excerpt: as §1

Structure (SMILES): CC(C)(C)c1cc(N(CC2CC2)c2ncc(C(=O)O)cn2)cc(C(C)(C)C)c1 [Compound 12, 2-[N-Cyclopropylmethyl-N-(3,5-di-tert-butylphenyl)-amino]pyrimidine5-carboxylic Acid]
melting point: 194 °C

Structure (SMILES): CN(c1cc(C(C)(C)C)cc(C(C)(C)C)c1)c1ncc(C(=O)O)cn1 [Compound 9, 2-[N-(3,5-Di-tert-butylphenyl)-N-methylamino] pyrimidine-5-carboxylic Acid]
melting point: 261 to 263 °C

Structure (SMILES): Cc1cc2c(cc1N(CC1CC1)c1ncc(C(=O)O)cn1)C(C)(C)CCC2(C)C [Compound 8, 2-[N-Cyclopropylmethyl-N-(5,6,7,8-tetrahydro-3,5,5,8,8-pentamethylnaphthalen-2-yl)amino]pyrimidine-5-carboxylic Acid]
melting point: 123 °C

Structure (SMILES): CCCN(c1ncc(C(=O)O)cn1)c1cc(C(C)(C)C)ccc1C(C)(C)C [Compound 11, 2-[N-(3,6-Di-tert-butylphenyl)-N-n-propylamino]pyrimidine-5-carboxylic Acid]
melting point: 219 °C

Structure (SMILES): CCCN(c1ccc2c(c1)C(C)(C)CCC2(C)C)c1ncc(C(=O)O)cn1 [Compound 3]
Ratio of differentiated cells by each compound co-existing with 1 × 10^−10 M Am80 (%) ([1]; compound concentration 10^−7 M + 1 × 10^−10 M Am80): 89% | Ratio of differentiated cells by each compound co-existing with 1 × 10^−10 M Am80 (%) ([1]; compound concentration 10^−8 M + 1 × 10^−10 M Am80): 87% | Ratio of differentiated cells by each compound co-existing with 1 × 10^−10 M Am80 (%) ([1]; compound concentration 10^−9 M + 1 × 10^−10 M Am80): 90% | Ratio of differentiated cells by each compound co-existing with 1 × 10^−10 M Am80 (%) ([1]; compound concentration 10^−10 M + 1 × 10^−10 M Am80): 60% | Ratio of differentiated cells by each compound co-existing with 1 × 10^−10 M Am80 (%) ([1]; compound concentration 10^−11 M + 1 × 10^−10 M Am80): 27% | Ratio of differentiated cells by each compound alone (%) ([2]; compound concentration 10^−6 M): 16% | Ratio of differentiated cells by each compound alone (%) ([2]; compound concentration 10^−7 M): 14% | Ratio of differentiated cells by each compound alone (%) ([2]; compound concentration 10^−8 M): 9%

The next lines start with the values.

melting point: 193 °C
Structure (SMILES): CCCN(c1ncc(C(=O)O)cn1)c1cc2c(cc1C)C(C)(C)CCC2(C)C [Compound 7, 2-[N-n-Propyl-N-(5,6,7,8-tetrahydro-3,5,5,8,8-pentamethyl-naphthalen-2-yl)amino]pyrimidine-5-carboxylic Acid]

melting point: 267 °C
Structure (SMILES): Cc1cc2c(cc1Nc1ncc(C(=O)O)cn1)C(C)(C)CCC2(C)C [Compound 5, 2-[N-(5,6,7,8-Tetrahydro-3,5,5,8,8-pentamethylnaphthalen-2-yl)amino]pyrimidine-5-carboxylic Acid]
